In ChEMBL document CHEMBL1909046, “DrugMatrix in vitro pharmacology data”:

Assays:
[1] = biological target: Kappa-type opioid receptor (Homo sapiens, UniProt P41145); assay: DRUGMATRIX: Opiate kappa (OP2, KOP) radioligand binding (ligand: [3H] Diprenorphine); type: cell membranes, HEK293, Membrane; details: Not Active = under 50% inhibition at 10 µM
[2] = biological target: T1, Alpha-1B adrenergic receptor (Rattus norvegicus, UniProt P15823); assay: DRUGMATRIX: Alpha-1B adrenergic receptor radioligand binding (ligand: prazosin); type: cell membranes, Wistar, Liver, Membrane; details: Not Active = under 50% inhibition at 10 µM
T1 sequence (P15823 whole entry): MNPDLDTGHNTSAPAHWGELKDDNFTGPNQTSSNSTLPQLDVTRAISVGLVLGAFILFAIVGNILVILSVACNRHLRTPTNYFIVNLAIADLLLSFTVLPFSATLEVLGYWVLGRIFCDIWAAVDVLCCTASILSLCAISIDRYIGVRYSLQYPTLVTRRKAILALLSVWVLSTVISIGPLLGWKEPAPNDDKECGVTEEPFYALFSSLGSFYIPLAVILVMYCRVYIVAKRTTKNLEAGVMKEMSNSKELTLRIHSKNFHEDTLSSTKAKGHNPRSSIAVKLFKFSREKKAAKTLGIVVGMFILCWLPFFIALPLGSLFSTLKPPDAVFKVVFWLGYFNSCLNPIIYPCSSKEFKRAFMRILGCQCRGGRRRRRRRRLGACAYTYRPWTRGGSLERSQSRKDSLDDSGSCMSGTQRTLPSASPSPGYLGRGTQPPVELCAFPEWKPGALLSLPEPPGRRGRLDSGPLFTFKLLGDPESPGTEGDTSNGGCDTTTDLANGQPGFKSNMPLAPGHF

Melanocortin receptor 5 = Melanocortin receptor 5 (Homo sapiens, UniProt P33032); type: cell membranes, HEK293, Membrane; further: in other assays of this panel Not Active means under 50% inhibition at 10 µM
D(1A) dopamine receptor = D(1A) dopamine receptor (Homo sapiens, UniProt P21728); assay: DRUGMATRIX: Dopamine D1 radioligand binding (ligand: [3H] SCH-23390); type: cell membranes, CHO, Membrane; details: cho; Not Active = under 50% inhibition at 10 µM
[3] = DRUGMATRIX: Imidazoline I2, Central radioligand binding (ligand: [3H] Idazoxan); type: cell membranes, Rattus norvegicus, Wistar, Cerebral cortex, Membrane; details: Not Active = under 50% inhibition at 10 µM
Estrogen receptor = biological target: T2, Estrogen receptor (Homo sapiens, UniProt P03372); details: sf9; further: in other assays of this panel Not Active means under 50% inhibition at 10 µM
T2 sequence (P03372 whole entry): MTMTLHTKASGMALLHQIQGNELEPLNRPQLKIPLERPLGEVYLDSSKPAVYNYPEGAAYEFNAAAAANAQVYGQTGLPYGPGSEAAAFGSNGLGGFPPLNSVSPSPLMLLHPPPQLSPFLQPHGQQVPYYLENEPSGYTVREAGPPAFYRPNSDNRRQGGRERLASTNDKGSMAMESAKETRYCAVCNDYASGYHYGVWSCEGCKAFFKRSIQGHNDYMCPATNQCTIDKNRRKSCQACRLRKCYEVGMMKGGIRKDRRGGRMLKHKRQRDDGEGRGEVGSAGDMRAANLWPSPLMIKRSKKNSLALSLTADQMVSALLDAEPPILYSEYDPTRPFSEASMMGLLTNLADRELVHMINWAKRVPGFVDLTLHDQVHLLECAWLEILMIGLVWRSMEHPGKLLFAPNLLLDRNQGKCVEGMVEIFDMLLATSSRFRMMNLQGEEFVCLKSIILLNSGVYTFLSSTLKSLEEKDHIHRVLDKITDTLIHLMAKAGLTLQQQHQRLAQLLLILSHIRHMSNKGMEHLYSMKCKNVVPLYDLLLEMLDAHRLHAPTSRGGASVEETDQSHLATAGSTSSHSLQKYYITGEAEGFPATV

D(1A) dopamine receptor, sequence (P21728 whole entry): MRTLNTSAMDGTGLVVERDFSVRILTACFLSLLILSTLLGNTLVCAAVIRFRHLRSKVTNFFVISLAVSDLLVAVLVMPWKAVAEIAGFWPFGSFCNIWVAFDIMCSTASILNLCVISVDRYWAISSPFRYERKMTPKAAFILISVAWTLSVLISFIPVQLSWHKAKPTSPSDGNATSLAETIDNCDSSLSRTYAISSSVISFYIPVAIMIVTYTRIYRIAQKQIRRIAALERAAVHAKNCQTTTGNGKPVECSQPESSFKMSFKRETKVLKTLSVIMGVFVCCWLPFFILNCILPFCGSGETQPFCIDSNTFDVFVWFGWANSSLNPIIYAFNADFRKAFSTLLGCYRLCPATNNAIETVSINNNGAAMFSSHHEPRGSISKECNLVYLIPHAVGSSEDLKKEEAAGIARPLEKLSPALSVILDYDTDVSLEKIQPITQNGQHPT
Kappa-type opioid receptor, sequence (P41145 whole entry): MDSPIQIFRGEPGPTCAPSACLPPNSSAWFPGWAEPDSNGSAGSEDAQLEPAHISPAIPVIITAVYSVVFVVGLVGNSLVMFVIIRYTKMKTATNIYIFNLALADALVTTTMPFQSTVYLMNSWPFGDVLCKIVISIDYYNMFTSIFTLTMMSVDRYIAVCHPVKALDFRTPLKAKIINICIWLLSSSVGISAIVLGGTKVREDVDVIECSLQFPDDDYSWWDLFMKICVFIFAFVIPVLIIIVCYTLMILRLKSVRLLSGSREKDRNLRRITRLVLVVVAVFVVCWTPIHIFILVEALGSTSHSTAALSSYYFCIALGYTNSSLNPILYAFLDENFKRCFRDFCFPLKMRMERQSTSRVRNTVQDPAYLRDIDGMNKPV
Melanocortin receptor 5, sequence (P33032 whole entry): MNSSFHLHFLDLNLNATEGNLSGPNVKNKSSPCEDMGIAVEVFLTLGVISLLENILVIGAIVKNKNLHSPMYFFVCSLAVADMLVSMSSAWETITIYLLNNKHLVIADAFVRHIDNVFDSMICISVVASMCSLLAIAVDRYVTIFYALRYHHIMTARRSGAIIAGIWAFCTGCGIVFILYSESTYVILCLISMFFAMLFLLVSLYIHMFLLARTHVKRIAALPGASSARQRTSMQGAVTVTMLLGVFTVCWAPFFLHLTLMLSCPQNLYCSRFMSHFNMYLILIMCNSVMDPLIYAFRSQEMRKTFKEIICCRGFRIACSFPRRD

Compound: CC(=N)S [THIOACETAMIDE]
- IC50 ([1]; hek293): Not Active
- IC50 [2]: Not Active
- IC50 (Melanocortin receptor 5; hek293): Not Active
- IC50 (D(1A) dopamine receptor): Not Active
- IC50 [3]: Not Active
- Ki [3]: Not Active

Compound: O=C1C[C@@H]2OCC=C3CN4CC[C@]56c7ccccc7N1[C@H]5[C@H]2[C@H]3C[C@H]46 [STRYCHNINE]
- IC50 [2]: Not Active
- IC50 (Melanocortin receptor 5; hek293): Not Active
- IC50 (D(1A) dopamine receptor): Not Active
- IC50 [3]: Not Active
- Ki [3]: Not Active

Compound: Nc1ccc(S(=O)(=O)NC(=O)c2ccccc2)cc1 [SULFABENZAMIDE]
- IC50 ([1]; hek293): Not Active
- IC50 [2]: Not Active
- IC50 (Melanocortin receptor 5; hek293): Not Active
- IC50 (D(1A) dopamine receptor): Not Active
- IC50 [3]: Not Active
- Ki [3]: Not Active
- IC50 (Estrogen receptor): Not Active

Compound: CC(=O)OCC(COC(C)=O)OC(C)=O [TRIACETIN]
- IC50 ([1]; hek293): Not Active
- IC50 [2]: Not Active
- IC50 (Melanocortin receptor 5; hek293): Not Active
- IC50 (D(1A) dopamine receptor): Not Active
- IC50 [3]: Not Active
- Ki [3]: Not Active

Compound: CCCCC(=O)N(Cc1ccc(-c2ccccc2-c2nnn[nH]2)cc1)[C@H](C(=O)O)C(C)C
- IC50 ([1]; hek293): Not Active
- IC50 [2]: Not Active
- IC50 (Melanocortin receptor 5; hek293): Not Active
- IC50 (D(1A) dopamine receptor): Not Active
- IC50 [3]: Not Active
- Ki [3]: Not Active
- IC50 (Estrogen receptor): Not Active

Compound: OCCOCCN1CCN(C2=Nc3ccccc3Sc3ccccc32)CC1 [QUETIAPINE]
- IC50 ([1]; hek293): Not Active
- IC50 (Melanocortin receptor 5; hek293): Not Active

Compound: CC1CCC(NC(=O)N(CCCl)N=O)CC1 (stereo not drawn) [SEMUSTINE]
- IC50 ([1]; hek293): Not Active
- IC50 [2]: Not Active
- IC50 (Melanocortin receptor 5; hek293): Not Active
- IC50 (D(1A) dopamine receptor): Not Active
- IC50 ([3]; read-out: IC50): 1.61 µM
- Ki ([3]; read-out: Ki): 1.08 µM
- IC50 (Estrogen receptor): Not Active

Compound: Oc1ccc2c3c1O[C@H]1[C@@H](O)CC[C@@]4(O)[C@@H](C2)N(CC2CCC2)CC[C@]314 [NALBUPHINE]
- IC50 (Melanocortin receptor 5; hek293): Not Active
- IC50 (Estrogen receptor): Not Active

Compound: Clc1ccc(COC(Cn2ccnc2)c2ccc(Cl)cc2Cl)c(Cl)c1 (stereo not drawn) [MICONAZOLE]
- Ki [1]: 2.64 µM
- IC50 ([1]; read-out: IC50): 6.59 µM
- IC50 (Melanocortin receptor 5; read-out: IC50): 22.6 µM
- Ki (Melanocortin receptor 5; read-out: Ki): 21.2 µM
- IC50 (Estrogen receptor): Not Active

Compound: O=C(O)CCCCC1CCSS1 (stereo not drawn) [LIPOIC ACID, ALPHA]
- IC50 ([1]; hek293): Not Active
- IC50 [2]: Not Active
- IC50 (Melanocortin receptor 5; hek293): Not Active
- IC50 (D(1A) dopamine receptor): Not Active
- IC50 [3]: Not Active
- Ki [3]: Not Active
- IC50 (Estrogen receptor): Not Active

Compound: CCCCCCCCNC(C)C(O)c1ccc(SC(C)C)cc1 (stereo not drawn) [SULOCTIDIL]
- IC50 ([1]; hek293): Not Active
- IC50 [2]: Not Active
- IC50 (Melanocortin receptor 5; hek293): Not Active
- IC50 (D(1A) dopamine receptor): Not Active
- IC50 [3]: Not Active
- Ki [3]: Not Active
- IC50 (Estrogen receptor): Not Active

Compound: COC(=O)[C@H]1[C@H]2C[C@@H]3c4[nH]c5cc(OC)ccc5c4CCN3C[C@H]2C[C@@H](OC(=O)c2cc(OC)c(OC)c(OC)c2)[C@@H]1OC [RESERPINE]
- IC50 ([1]; hek293): Not Active
- IC50 [2]: Not Active
- IC50 (Melanocortin receptor 5; hek293): Not Active
- IC50 (D(1A) dopamine receptor): Not Active
- IC50 [3]: Not Active
- Ki [3]: Not Active

Compound: O=c1[nH]c(=O)n(C2CCCO2)cc1F (stereo not drawn) [TEGAFUR]
- IC50 ([1]; hek293): Not Active
- IC50 [2]: Not Active
- IC50 (Melanocortin receptor 5; hek293): Not Active
- IC50 (D(1A) dopamine receptor): Not Active
- IC50 [3]: Not Active
- Ki [3]: Not Active

Compound: CC(C)NC[C@H](O)COc1cccc2ccccc12 [LEVOPROPRANOLOL]
- IC50 ([1]; hek293): Not Active
- IC50 (Melanocortin receptor 5; hek293): Not Active

Compound: CN1[C@@H]2CC[C@H]1C[C@@H](OC(c1ccccc1)c1ccccc1)C2 [BENZTROPINE]
- IC50 ([1]; hek293): Not Active
- IC50 (Melanocortin receptor 5; hek293): Not Active
- IC50 (Estrogen receptor): Not Active

Compound: Cc1ccc(C(=O)c2ccc(CC(=O)O)n2C)cc1 [TOLMETIN]
- IC50 ([1]; hek293): Not Active
- IC50 [2]: Not Active
- IC50 (Melanocortin receptor 5; hek293): Not Active
- IC50 (D(1A) dopamine receptor): Not Active
- IC50 [3]: Not Active
- Ki [3]: Not Active
- IC50 (Estrogen receptor): Not Active

Compound: C[S+]([O-])c1ccc(-c2nc(-c3ccncc3)c(-c3ccc(F)cc3)[nH]2)cc1 (stereo not drawn) [SB-203580]
- IC50 ([1]; hek293): Not Active
- IC50 (Melanocortin receptor 5; hek293): Not Active
- IC50 (Estrogen receptor): Not Active

Compound: CN1CCN(C2=Nc3cc(Cl)ccc3Nc3ccccc32)CC1 [CLOZAPINE]
- IC50 ([1]; hek293): Not Active
- IC50 (Melanocortin receptor 5; hek293): Not Active
- IC50 (Estrogen receptor): Not Active

Compound: C[C@]12C=CC(=O)C=C1CC[C@@H]1[C@@H]2C(=O)C[C@@]2(C)[C@H]1CC[C@]2(O)C(=O)CO [PREDNISONE]
- IC50 ([1]; hek293): Not Active
- IC50 [2]: Not Active
- IC50 (Melanocortin receptor 5; hek293): Not Active
- IC50 (D(1A) dopamine receptor): Not Active
- IC50 [3]: Not Active
- Ki [3]: Not Active
- IC50 (Estrogen receptor): Not Active

Compound: CC(C)NC[C@@H](O)COc1cccc2ccccc12 [DEXPROPRANOLOL]
- IC50 ([1]; hek293): Not Active
- IC50 (Melanocortin receptor 5; hek293): Not Active

Compound: CN1CCN(CCCN2c3ccccc3Sc3ccc(C(F)(F)F)cc32)CC1 [TRIFLUOPERAZINE]
- IC50 ([1]; hek293): Not Active
- IC50 [2]: Not Active
- IC50 (Melanocortin receptor 5; hek293): Not Active
- IC50 (D(1A) dopamine receptor): Not Active
- IC50 [3]: Not Active
- Ki [3]: Not Active

Compound: O=C(O)COc1ccc(C(=O)c2cccs2)c(Cl)c1Cl
- IC50 ([1]; hek293): Not Active
- IC50 [2]: Not Active
- IC50 (Melanocortin receptor 5; hek293): Not Active
- IC50 (D(1A) dopamine receptor): Not Active
- IC50 [3]: Not Active
- Ki [3]: Not Active
- IC50 (Estrogen receptor): Not Active

Compound: C[N+](C)(C)CCOC(=O)CCC(=O)OCC[N+](C)(C)C.[Cl-].[Cl-] [SUCCINYLCHOLINE CHLORIDE]
- IC50 [2]: Not Active
- IC50 (Melanocortin receptor 5; hek293): Not Active
- IC50 (D(1A) dopamine receptor): Not Active
- IC50 [3]: Not Active
- Ki [3]: Not Active
- IC50 (Estrogen receptor): Not Active

Compound: TRANSPLATIN
- IC50 [2]: Not Active
- Ki [2]: Not Active
- IC50 (Melanocortin receptor 5; hek293): Not Active
- Ki (Melanocortin receptor 5; hek293): Not Active
- IC50 (D(1A) dopamine receptor): Not Active
- Ki (D(1A) dopamine receptor): Not Active
- IC50 [3]: Not Active
- Ki [3]: Not Active
- IC50 (Estrogen receptor): Not Active
- Ki (Estrogen receptor): Not Active

Compound: C[C@@](Cc1ccc(O)c(O)c1)(NN)C(=O)O.O [CARBIDOPA]
- IC50 ([1]; hek293): Not Active
- IC50 [2]: Not Active
- IC50 (Melanocortin receptor 5; hek293): Not Active
- IC50 (D(1A) dopamine receptor): Not Active
- IC50 [3]: Not Active
- Ki [3]: Not Active

Compound: ZIRCONIUM(IV) CHLORIDE
- IC50 [2]: Not Active
- Ki [2]: Not Active
- IC50 (Melanocortin receptor 5; hek293): Not Active
- Ki (Melanocortin receptor 5; hek293): Not Active
- IC50 (D(1A) dopamine receptor): Not Active
- Ki (D(1A) dopamine receptor): Not Active
- IC50 [3]: Not Active
- Ki [3]: Not Active
- IC50 (Estrogen receptor): Not Active
- Ki (Estrogen receptor): Not Active

Compound: CN(C)C(=O)C(CCN1CCC(O)(c2ccc(Cl)cc2)CC1)(c1ccccc1)c1ccccc1 [LOPERAMIDE]
- IC50 (Melanocortin receptor 5; hek293): Not Active
- IC50 (Estrogen receptor): Not Active

Compound: O=C(O)c1ccccc1O [SALICYLIC ACID]
- IC50 [2]: Not Active
- IC50 (Melanocortin receptor 5; hek293): Not Active
- IC50 (D(1A) dopamine receptor): Not Active
- IC50 [3]: Not Active
- Ki [3]: Not Active
- IC50 (Estrogen receptor): Not Active
